Tests used:
[1] = test system: brain tumor with unclear pathological types that relapsed after surgery and on which the standard therapy failed; test: Tumor inhibition rate in animal model of brain tumors with unclear pathological types; assay type: in vivo, rats; conditions: for Tumor inhibition rate (%) / Tumor weight: 5th day after drug-withdrawal
Method: (§1) 1.1 Cell culture: The pathological tissue for cell culture was a tissue sample removed surgically from high-grade brain tumor that relapsed after surgery and on which the standard therapy failed. Glioblasts cells, high-grade anaplastic astrocytoma cells, high-grade anaplastic oligodendrocytoma cells, high-grade anaplastic oligoastrocytoma cells, and brain tumor cells with unclear pathological types, obtained by separation and culture of pathological tissue, were seeded in DMEM complete culture medium containing 10% FBS and routinely incubated in a 37° C., 5% carbon dioxide incubator under saturated humidity. TMZ was dissolved in DMSO solution, and the mass concentration of the stock solution was 100 mg/mL. Tumor cells in the logarithmic growth phase were diluted to obtain a cell suspension at 1×10^5 cells/mL, and the initial inducer dose 0.25 μg/mL of TMZ was added after routinely culturing for 24 h. The culture was continued for 15-20 days, and after stabilization of cell growth, the induced concentration of the drug was doubled, then the cells were further cultured for 15-20 d at each induced concentration. Thus, the final concentration of TMZ was 16.00 μg/mL, and various pathological types of cell suspensions were obtained.
(§2) The cell suspension obtained in step 1 was inoculated into rats in situ, to prepare animal models of brain tumor with unclear pathological types that relapsed after surgery and on which the standard therapy failed, and the animals were divided into test groups listed in the following table. […] On the 5th day after drug-withdrawal, the size of the in situ tumor in the rat brain was observed, and the tumor was weighed. The tumor inhibition rate was calculated.

[2] = test system: high-grade anaplastic astrocytoma that relapsed after surgery and on which the standard therapy failed; test: Tumor inhibition rate in animal model of high-grade anaplastic astrocytoma; assay type: in vivo, rats; conditions: for Tumor inhibition rate (%) / Tumor weight: 5th day after drug-withdrawal
Method: as §1
as §2, with “high-grade anaplastic astrocytoma” for “brain tumor with unclear pathological types”

[3] = test system: glioblastoma that relapsed after surgery and on which the standard therapy failed; test: Tumor inhibition rate in animal model of glioblastoma; assay type: in vivo, rats; conditions: for Tumor inhibition rate (%) / Tumor weight: 5th day after drug-withdrawal
Method: as §1
(§3) The cell suspension obtained in step 1 was inoculated into rats in situ, to prepare animal models of glioblastoma that relapsed after surgery and on which the standard therapy failed, and the animals were divided into test groups listed in the following table. […] The tumor inhibition rate was calculated.

[4] = test system: high-grade anaplastic oligoastrocytoma that relapsed after surgery and on which the standard therapy failed; test: Tumor inhibition rate in animal model of high-grade anaplastic oligoastrocytoma; assay type: in vivo, rats; conditions: for Tumor inhibition rate (%) / Tumor weight: 5th day after drug-withdrawal
Method: as §1
as §3, with “high-grade anaplastic oligoastrocytoma” for “glioblastoma”

[5] = test system: high-grade glioma relapsed after failure of standard treatment; test: Clinical trial of chlorogenic acid for injection, effectiveness by RANO standard and survival; assay type: in vivo, patients
Method: A total of 23 subjects completed the test in this trial, including 5 patients with grade III gliomas and 18 patients with grade IV gliomas. […] The subjects included in this trial were all patients with high-grade glioma who relapsed after surgery and didn't response to the standard therapy. The standard treatment was chemotherapy and radiotherapy. […] Ineffective means tumor progression. […] The effectiveness evaluation was performed according to the RANO standard, and the specific RANO standards are as follows: [table] […] A total of 26 subjects were enrolled in the trial, 3 cases were released early, and 23 cases can be counted: […]

[6] = test system: high-grade anaplastic oligodendrocytoma that relapsed after surgery and on which the standard therapy failed; test: Tumor inhibition rate in animal model of high-grade anaplastic oligodendrocytoma; assay type: in vivo, rats; conditions: for Tumor inhibition rate (%) / Tumor weight: 5th day after drug-withdrawal
Method: as §1
as §3, with “high-grade anaplastic oligodendrocytoma” for “glioblastoma”

[7] = dose 35 mg/kg i.p. daily 10 days

O=C(/C=C/c1ccc(O)c(O)c1)O[C@@H]1C[C@](O)(C(=O)O)C[C@@H](O)[C@H]1O [Chlorogenic acid, chlorogenic acid] was tested, and the “Tumor inhibition rate (%)” value [1, 7] was 44.5%, the Tumor weight [1, 7] was 1.21 ± 0.11 and the “therapeutic effect in words” value ([1]; summary of the table for brain tumors with unclear pathological types) was “significant inhibitory effect”. The “Tumor inhibition rate (%)” value [2, 7] was 50.2%, the Tumor weight [2, 7] was 1.12 ± 0.10 and the “therapeutic effect in words” value ([2]; summary of the anaplastic astrocytoma model table) was “significant inhibitory effect”. The “Tumor inhibition rate (%)” value [3, 7] was 52.2%, the “therapeutic effect in words” value ([3]; summary of the glioblastoma model table) was “significant inhibitory effect” and the “Tumor inhibition rate (%)” value [4, 7] was 47.0%. For the same compound, the “therapeutic effect in words” value ([4]; summary of the anaplastic oligoastrocytoma model table) was “significant inhibitory effect”, the response rate ([5]; 9 survival subjects with grade IV glioblastoma, 1 cycle) was 88.9% and the response rate ([5]; nine dead subjects with grade IV glioma, one cycle) was 11.1%. The “Tumor inhibition rate (%)” value [6, 7] was 52.6% and the “therapeutic effect in words” value ([6]; summary of the anaplastic oligodendrocytoma model table) was “significant inhibitory effect”.

For Cn1nnc2c(C(N)=O)ncn2c1=O [temozolomide], the “Tumor inhibition rate (%)” value ([1]; dose 10 mg/kg oral 5 days) was 16.0%, the Tumor weight ([1]; dose 10 mg/kg oral 5 days) was 1.83 ± 0.13 and the “Tumor inhibition rate (%)” value ([1]; dose 20 mg/kg oral 5 days) was 25.7%. For the same compound, the Tumor weight ([1]; dose 20 mg/kg oral 5 days) was 1.62 ± 0.14, the “Tumor inhibition rate (%)” value ([2]; dose 10 mg/kg oral 5 days) was 13.3% and the Tumor weight ([2]; dose 10 mg/kg oral 5 days) was 1.95 ± 0.18. The “Tumor inhibition rate (%)” value ([2]; dose 20 mg/kg oral 5 days) was 20.9%, the Tumor weight ([2]; dose 20 mg/kg oral 5 days) was 1.78 ± 0.11 and the “Tumor inhibition rate (%)” value ([3]; dose 10 mg/kg oral 5 days) was 14.6%. For the same compound, the Tumor weight ([3]; dose 10 mg/kg oral 5 days) was 1.75 ± 0.14, the “Tumor inhibition rate (%)” value ([3]; dose 20 mg/kg oral 5 days) was 24.1% and the Tumor weight ([3]; dose 20 mg/kg oral 5 days) was 1.54 ± 0.10. For the same compound, the “Tumor inhibition rate (%)” value ([4]; dose 10 mg/kg oral 5 days) was 13.1%, the Tumor weight ([4]; dose 10 mg/kg oral 5 days) was 1.72 ± 0.14 and the “Tumor inhibition rate (%)” value ([4]; dose 20 mg/kg oral 5 days) was 20.2%. For the same compound, the Tumor weight ([4]; dose 20 mg/kg oral 5 days) was 1.58 ± 0.12, the “Tumor inhibition rate (%)” value ([6]; dose 10 mg/kg oral 5 days) was 15.5% and the Tumor weight ([6]; dose 10 mg/kg oral 5 days) was 1.80 ± 0.15. For the same compound, the “Tumor inhibition rate (%)” value ([6]; dose 20 mg/kg oral 5 days) was 22.5% and the Tumor weight ([6]; dose 20 mg/kg oral 5 days) was 1.65 ± 0.14.
